In assay [1] the target is p38a/MK2 (Homo sapiens (Human), UniProt P49137+Q16539). As to the kind of experiment: p38a/MK2 biochemical assay: activation of MK2 by p38, FITC-HSP27 peptide phosphorylation (IMAP FP). Particulars: 10-point 1:3 dilution, 60 pM active p38a, 1 nM inactive MK2, 10 μM ATP, 2 h incubation; for IC50: top dose 1 μM, read-out: p38a/MK2 (1 μM) Enzyme pIC50 (converted).
Assay [2] addresses p38a/PRAK (Homo sapiens (Human), UniProt Q16539). As to the kind of experiment: p38a/PRAK biochemical assay: activation of PRAK by p38, FITC-HSP27 peptide phosphorylation (IMAP FP). To be noted: 10-point 1:3 dilution, top dose 300 μM; 60 pM active p38a, 1 nM inactive PRAK, 10 μM ATP, 2 h incubation; read-out: p38a/PRAK Enzyme pIC50 (converted). In outline:
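GST-tagged MK2 (F46–H400) and PRAK (M1–Q471), expressed in E. coli, activated by p38 and phosphorylate FITC-HSP27 peptide over 2 h with compound; readout by IMAP fluorescence polarisation (ex 485/em 528 nm). Ten-point 1:3 dilutions, top dose 1 μM for MK2 and 300 μM for PRAK. IC50 after vehicle normalisation; selectivity = IC50(PRAK)/IC50(MK2).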

Chain of p38a/PRAK (Q16539 whole entry): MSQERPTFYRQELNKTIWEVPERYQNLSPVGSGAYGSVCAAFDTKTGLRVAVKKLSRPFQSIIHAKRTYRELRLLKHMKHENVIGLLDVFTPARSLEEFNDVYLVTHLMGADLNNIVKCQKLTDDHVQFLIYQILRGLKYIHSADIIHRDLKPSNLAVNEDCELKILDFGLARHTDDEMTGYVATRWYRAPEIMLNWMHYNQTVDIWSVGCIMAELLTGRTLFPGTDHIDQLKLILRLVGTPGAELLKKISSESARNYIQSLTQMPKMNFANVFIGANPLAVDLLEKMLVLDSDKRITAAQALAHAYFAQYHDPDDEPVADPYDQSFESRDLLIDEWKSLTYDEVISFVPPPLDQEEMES
Chain of p38a/MK2 (P49137 46-400): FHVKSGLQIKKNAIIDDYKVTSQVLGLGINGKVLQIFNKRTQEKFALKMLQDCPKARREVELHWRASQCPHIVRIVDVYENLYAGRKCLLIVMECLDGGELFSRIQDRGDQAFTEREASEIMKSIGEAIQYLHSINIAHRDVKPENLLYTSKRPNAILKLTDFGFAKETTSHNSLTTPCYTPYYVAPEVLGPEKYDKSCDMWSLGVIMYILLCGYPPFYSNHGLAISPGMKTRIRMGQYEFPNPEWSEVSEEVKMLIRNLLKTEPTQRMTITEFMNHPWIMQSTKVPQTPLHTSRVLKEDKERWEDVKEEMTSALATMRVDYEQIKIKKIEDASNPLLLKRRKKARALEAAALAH
Chain of p38a/MK2 (Q16539 whole entry): as the sequence (Q16539 whole entry) above

On to `COCC(C)(O)c1nccc(-c2cc(-n3c(C)cc(OCc4ncc(F)cc4F)c(Cl)c3=O)c(C)cn2)n1` (racemic) [Example 55, 3-chloro-4-[(3,5-difluoropyridin-2-yl)methoxy]-2′-[2-(2-hydroxy-1-methoxypropan-2-yl)pyrimidin-4-yl]-5′,6-dimethyl-[1,4′-bipyridin]-2-one], for which the values for the IC50 in assay [1] and in assay [2] were 0.0631 µM and 10 µM, respectively.
In the case of `Cc1cnc(-c2ccnc([C@@](C)(O)C3CC3)n2)cc1-n1c(C)cc(OCc2ncc(F)cc2F)c(Cl)c1=O` (racemic) [Example 6, 3-chloro-2′-[2-(1-cyclopropyl-1-hydroxyethyl)pyrimidin-4-yl]-4-[(3,5-difluoropyridin-2-yl)methoxy]-5′,6-dimethyl-[1,4′-bipyridin]-2-one], the “p38a/MK2 (10 μM) Enzyme pIC50” value in assay [1] (top dose 10 μM) was found to be 7.5. In addition, in assay [2], the IC50 is 12.6 µM.
Take `[2H]C([2H])([2H])C(O)(c1nccc(-c2ncc(C)c(-n3c(C)cc(OCc4ncc(F)cc4F)c(Cl)c3=O)c2F)n1)C([2H])([2H])[2H]` (single isomer, unassigned) [Example 66B, rel-3-chloro-4-((3,5-difluoropyridin-2-yl)methoxy)-3′-fluoro-2′-(2-(2-hydroxypropan-2-yl-1,1,1,3,3,3-d6)pyrimidin-4-yl)-5′,6-dimethyl-2H-[1,4′-bipyridin]-2-one]: the IC50 in assay [1] was 0.00631 µM; in assay [2] it was 1 µM.

Source of the values: US11680056B2, “MK2 inhibitors and uses thereof” (Xinthera, Inc., priority 2021, dated 2023).
